Results as given in ChEMBL document CHEMBL3217542, “Chiral diaminocyclohexane coupling polyphenols: A new class of anticancer agents” (Medchemcomm, 2012).
The source made the active and inactive calls. The rule behind the calls is not given here.

Columns and labels:
[1] = Cytotoxicity against human fibroblasts after 2 days by SRB assay; format: cell-based; conditions: Fibroblast, 48 h
MCF7 [2] = test: Cytotoxicity against human MCF7 cells after 2 days by SRB assay; format: functional, cell-based; conditions: MCF7, 48 h
MCF7 [3] = test: Selectivity index, ratio of IC50 for human fibroblasts to IC50 for human MCF7 cells
MDA-MB-468 = test: Cytotoxicity against human MDA-MB-468 cells after 2 days by SRB assay; format: functional, cell-based; conditions: MDA-MB-468, 48 h
[4] = Selectivity index, ratio of IC50 for human fibroblasts to IC50 for human HBT-174 cells
NCI-H460 = test: Cytotoxicity against human NCI-H460 cells after 2 days by SRB assay; format: functional, cell-based; conditions: NCI-H460, 48 h
[5] = Cytotoxicity against human HBT-174 cells after 2 days by SRB assay; format: functional, cell-based; conditions: HBT-174, 48 h
MDA-MB-453 [6] = test: Cytotoxicity against human MDA-MB-453 cells after 2 days by SRB assay; format: functional, cell-based; conditions: MDA-MB-453, 48 h
MDA-MB-231 = test: Cytotoxicity against human MDA-MB-231 cells after 2 days by SRB assay; format: functional, cell-based; conditions: MDA-MB-231, 48 h
MDA-MB-453 [7] = test: Antimammosphere formation activity in human MDA-MB-453 cells assessed as ALDH positive cells at 10 uM after 4 days relative to control; format: functional
MDA-MB-453 [8] = test: Antimammosphere formation activity in human MDA-MB-453 cells assessed as ALDH positive cells at 5 uM after 4 days relative to control; format: functional
MCF7 [9] = test: Reduction of Bcl-xL gene expression in human MCF7 cells at 5 uM after 24 hrs by RT-PCR analysis relative to control; format: functional; design: scale not given: the % may be the effect or the level left
MCF7 [10] = test: Reduction of Bcl-2 gene expression in human MCF7 cells at 5 uM after 24 hrs by RT-PCR analysis relative to control; format: functional; design: scale not given: the % may be the effect or the level left
HBT-174 = test: Inhibition of colony formation in human HBT-174 cells assessed as decrease in colony size and number of colony at 0.5 to 5 uM treated every 3 days for 10 days by SRB staining; format: functional, cell-based
MCF7 [11] = test: Reduction of cyclin-D1 gene expression in human MCF7 cells at 5 uM after 24 hrs by RT-PCR analysis relative to control; format: functional; design: scale not given: the % may be the effect or the level left
MDA-MB-453 [12] = test: Antimammosphere formation activity in human MDA-MB-453 cells assessed as ALDH positive cells at 1 uM after 4 days relative to control; format: functional
MCF7 [13] = test: Reduction of p53 gene expression in human MCF7 cells at 5 uM after 24 hrs by RT-PCR analysis relative to control; format: functional; design: scale not given: the % may be the effect or the level left

SMILES	IC50 [1] [µM]	IC50 (MCF7 [2]) [µM]	Ratio IC50 (MCF7 [3])	IC50 (MDA-MB-468) [µM]	Ratio IC50 [4]	IC50 (NCI-H460) [µM]	IC50 [5] [µM]	IC50 (MDA-MB-453 [6]) [µM]	IC50 (MDA-MB-231) [µM]	Activity (MDA-MB-453 [7]) [%]	Activity (MDA-MB-453 [8]) [%]	Activity (MCF7 [9]) [%]	Activity (MCF7 [10]) [%]	inhibition (HBT-174)	Activity (MCF7 [11]) [%]	Activity (MDA-MB-453 [12]) [%]	Activity (MCF7 [13]) [%]
Cc1ccc(O)c(CN[C@@H]2CCCC[C@H]2NCc2cc(C)ccc2O)c1	37	3.6	10.3	–	–	–	–	–	–	–	–	–	–	–	–	–	–
Oc1ccc(CN[C@@H]2CCCC[C@H]2NCc2ccc(O)cc2O)c(O)c1	82	6	13.7	4.4	10	2.2	8.2	4.5	4	–	–	–	–	–	–	–	–
Oc1ccc(O)c(CN[C@@H]2CCCC[C@H]2NCc2cc(O)ccc2O)c1	75	5.2	14.4	5.9	9.4	2.4	8	5.2	3.8	–	–	–	–	–	–	–	–
Oc1ccc(CN[C@@H]2CCCC[C@H]2NCc2ccc(O)c(O)c2)cc1O	32	2.5	12.8	1.2	9.7	0.9	3.3	1.8	1.4	–	–	–	–	–	–	–	–
O=C(O)c1ccc(O)c(CN[C@@H]2CCCC[C@H]2NCc2cc(C(=O)O)ccc2O)c1	108	8.4	12.8	–	–	–	–	–	–	–	–	–	–	–	–	–	–
Oc1cccc(CN[C@@H]2CCCC[C@H]2NCc2cccc(O)c2O)c1O	106	4.8	22.1	3.3	15.6	1.8	6.8	4.6	2.4	<5	25	22.2	15.6	Active	24.8	90	33.1
